The subject of assay [1] is platelet activating factor (PAF). As to the kind of experiment: Inhibition of PAF-induced increase in airway resistance, test compound i.v. (Test Example 4). Format: in vivo, guinea pig. The note with it: dose 10µg/kg i.v. one minute before PAF (50 ng/kg i.v.), n=2. As to the method: A guinea pig was intraperitoneally anesthetized with 1.2 g/kg urethane (Katayama Kagaku, Japan). The test animal was cannulated through the common carotid […] and the trachea, and then pancuronium bromide was intravenously administered at 0.3 mg/kg to stop the spontaneous respiration of the test animal. The animal was artificially respired using a respirater for a small animal (SN-480-7, Shinano Seisakusho, Japan) and bronchospasm transducer (7020, Ugo Basile). The overflowing air at 7-10 ml(air)/time, 60 times/minute and loading pressure of 10 cm H2O was recorded on a recorder (056-1001, Hitachi Seisakusho, Japan) through the bronchospasm transducer. When the base line was stabilized, platelet activating factor (PAF) (50 ng/kg) was intravenously administered. The increase in the airway resistance was determined taking the value at the complete occlusion of trachea as the maximum contraction (100%). The test compounds were intravenously administered one minute before the administration of PAF. The difference of airway resistance before and after the administration of 50 ng/kg PAF was taken as 100% and activity of test compound was shown in terms of percent inhibition of the increase due to PAF.

Another assay relates to conjunctive. Nature of the assay: Histamine-induced conjunctival inflammation and dye leakage, ophthalmic administration (Test Example 6). The following applies: for Weight of Conjunctive (Mean±S.D.): 3 minutes before Evans Blue and subconjunctival histamine, 30 minutes, control 41.5±2.0; for Dye (µg/part): dye extracted from conjunctive, absorption at 625 nm, control 8.26±0.52. Format: in vivo, Female Wistar rats. Also on record: Weight of Conjunctive (Mean±S.D.): dose or concentration left out as unconfirmed. As to the method: Female Wistar rats (weight: 90g) were used as the test animals. The animals received the test compounds and, 3 minutes after, 0.5ml of 0.5% Ebans Blue/physiological saline was administered through the caudal vein. Then, immediately after, 0.05ml of 0.1% histamine hydrochloride/physiological saline was injected subconjunctivally at an upper eyelid. After 30 minutes, the animals were sacrificed by vertebral cervial dislocation and the scalp was peeled away towards the eyelid. Part of skin and conjunctive showing inflammation was cut off and weighed. Then, said conjunctive was minced and extracted overnight with 4ml […] at 40°C with shaking. The dye in the conjunctive was assayed by measuring absorption of the extract at 625 nm. […] Control animals received the same amount of the physiological saline.

The subject of assay [2] is contraction by leukotriene D4. As to the kind of experiment: Inhibition of leukotriene D4-induced contraction of isolated guinea pig trachea (Test Example 3). In kind it is cell-based. The note with it: guinea pig trachea contracted with 1x10^-8M leukotriene D4; for IC20: concentration for 20% inhibition; for IC50: concentration for 50% inhibition. As to the method: (§1) A guinea pig was sacrificed by knocking at the occipital region and then bleeding from the femoral artery. The trachea was removed, incised in the longitudinal direction at the opposite side of the smooth muscle and sectioned into sections of about 1 to 1.5 cm along the cartilage. Seven or eight sections were linked by a silk thread in chains. The sample was stretched by 1.0 g of tension in 15 ml of Tyrode's solution at 37°C under flow of the mixed gas of 95% O2 and 5% CO2. After resting for 60 to 90 minutes for stabilization, the sample was contracted with 1x10^-8M leukotriene D4 and when the construction reached the constant value, the test compounds were accumulately added every 6 minutes, and the change in tension was recorded on a recorder (T-626DS, Nippon Densi Kagaku, Japan) through an isometric transducer (1T-1, LABOX, Fukukensha, Japan).
Rate of inhibition by the test compounds of the contraction by leukotriene D4 was expressed in percent, and IC20 and IC50 values were calculated as the concentration of the test compounds for 20% and 50% […], respectively.

Another assay concerns PCA reaction. Nature of the assay: Passive cutaneous anaphylaxis (PCA) reaction in sensitized rats (Test Example 7). The note with it: Dose 10 µg/kg intravenously, n=16. In kind it is in vivo, Male Crj Wistar rats. As for the experimental part: Male Crj Wistar rats (7 weeks old) were passively sensitized by injecting 50µl of diluted rat anti-EA (egg albumin) antiserum at the dorsal skin.
After 48 hours, 1 ml of a mixture consisting of equal amount of 1% EA (egg albumin) as the antigen in physiological saline and 1% Evans Blue in physiological saline was injected in the caudal vein to elicit the PCA reaction. After 30 minutes, the animals were killed by deep anesthetization and dorsal skin was ablated. The major and minor axes of reacted part, i.e. pigment-leaking site were measured and the average value of them was taken as the diameter, from which the area was calculated.
Then said site was punched and amount of the pigment was measured by the following method.
The punched site was dipped in 1ml of 1N aqueous potassium hydroxide and allowed to stand overnight at 37°C. Then 9ml of a mixed solution of 0.6N H3PO4: acetone (5:13) was added and the mixture was centrifuged. The supernatant was assayed for absorption at 620 nm using an absorption spectrophotometer. The amount of the pigment was determined by calibration curve which was obtained using the known amounts of the pigment.
The test compound was dissolved in the physiological saline and intravenously administered. The control animals intravenously received the physiological saline (5ml/kg) alone.

For assay [3], the system named is increase in the airway resistance by histamine. As to the kind of experiment: Inhibition of histamine-induced increase in airway resistance, test compound i.v. (Test Example 2). Format: in vivo. The note with it: one minute before histamine (3 µg/kg), anesthetized guinea pig. As to the method:
A guinea pig was intraperitoneally anesthetized with 1.0-1.2 g/kg urethane (Katayama Kagaku, Japan). The test animal was cannulated through the common carotid […] and the trachea, and then pancuronium bromide was intravenously administered at 0.3 mg/kg to stop the spontaneous respiration of the test animal. The animal was artificially respired using a respirater for a small animal (SN-480-7, Shinano Seisakusho, Japan) and bronchospasm transducer (7020, Ugo Basile). The overflowing air at 6-9 ml(air)/time, 60 times/minute and loading pressure of 10 cm H2O was recorded on a recorder (056-1001, Hitachi Seisakusho, Japan) through the bronchospasm transducer. Histamine (3 µg/kg) was administered several times at 30 minutes intervals, and when the increase in the airway resistance by histamine was established, the test compounds were intravenously administered one minute before the administration of histamine (3 µg/kg) to induce airway constriction. The difference of airway resistance before and after the administration of histamine was taken as 100% and activity of test compounds was shown in terms of percent inhibition of the increase due to histamine.

Another assay concerns contraction by histamine. Nature of the assay: Inhibition of histamine-induced contraction of isolated guinea pig trachea (Test Example 1). In kind it is cell-based. The following applies: guinea pig trachea contracted with 5.4x10^-4M histamine, cumulative addition every 6 minutes; for IC20: concentration for 20% inhibition; for IC50: concentration for 50% inhibition. As for the experimental part: as §1, with “5.4x10^-4M histamine” for “1x10^-8M leukotriene D4”, “Denshi” for “Densi”
Rate of inhibition by the test compounds of the contraction by histamine was expressed in percent, and IC20 and IC50 values were calculated as the concentration of the test compounds for 20% and 50% […], respectively.

As to `CCCC(F)(F)C(=O)CCCC1C(=O)CC(O)C1C/C=C\CCCC(=O)OC` (stereo not drawn) [Test Compound 8, 13,14-dihydro-15-dehydroxy-16-oxo-17,17-difluoro-PGD2 methyl ester], in assay [1] (complete occlusion of trachea = 100%, control 74.5), the “Increase in Resistance (%,mean)” value turned out to be 11.5%. The “Inhibition (%)” value in assay [1] was 84.6%; in assay [3] (dose 5 µg/kg), 93%. In addition, the “Weight of Conjunctive (Mean±S.D.)” value in the assay with conjunctive was 32.7 ± 1.8 mg. For the same compound, the IC20 worked out at 40 nM in assay [2] and 100 nM in the assay with contraction by histamine. Besides, the values for the IC50 (in assay [2]; in the assay with contraction by histamine) were 120 nM and 350 nM, respectively. In the assay with PCA reaction (amount of pigment in punched site, absorption at 620 nm, control 104.9±45.4), the “Amount(µg/site)” value turned out to be 38.0±15.9 µg/site. Also, in the assay on PCA reaction (area of pigment-leaking site, 30 minutes after antigen, control 56.9±19.4), the “Area(mm^2)” value is on record as 33.7±7.5 mm^2.

With `CCCC(F)(F)C(=O)CCC[C@H]1[C@H](O)CC(=O)[C@@H]1C/C=C\CCCC(=O)OC` [compound 1], in the assay with conjunctive, the “Weight of Conjunctive (Mean±S.D.)” value stood at 36.3 ± 2.1 mg and the “Dye (µg/part)” value is 7.13±0.65 µg/part. In assay [2] (Cavia porcellus), this compound displayed a 20% effect concentration (IC20) of 160 nM and an IC50 of 500 nM. Besides, the “Inhibition (%)” value in assay [3] (dose 10 µg/kg) worked out at 92%. In the assay with contraction by histamine (Cavia porcellus, 0.1 h), this compound gave an IC20 of 300 nM and an IC50 of 1200 nM.

For `CCCC(F)(F)C(=O)CCC[C@H]1[C@H](O)CC(=O)[C@@H]1C/C=C\CCCC(=O)O` [compound 2], in assay [2] (Cavia porcellus), the IC20 came out at 300 nM and 1000 nM corresponded to half-maximal inhibition (IC50). For the same compound, in assay [3] (dose 10 µg/kg), the “Inhibition (%)” value stood at 78%. In the assay with contraction by histamine (Cavia porcellus, 0.1 h), this compound registered an IC20 of 300 nM and an IC50 of 2000 nM.

As to `CCCC(F)(F)C(=O)CCC[C@H]1[C@H](O)CC(=O)[C@@H]1C/C=C\CCCC(=O)OC(C)C` [compound 3], in assay [2] (Cavia porcellus), the IC20 worked out at 180 nM and the IC50 was determined as 600 nM. In the assay with contraction by histamine (Cavia porcellus, 0.1 h), this compound came in with an IC20 of 500 nM and a 50% inhibitory concentration (IC50) of 2000 nM.

In assay [2] (Cavia porcellus), `CCCC(F)(F)C(=O)CCC[C@H]1[C@H](C)CC(=O)[C@@H]1C/C=C\CCCC(=O)OC` [compound 4] gave an IC20 of 7000 nM and an IC50 of 25000 nM. In addition, it took 10000 nM to reach the 20% level in the assay with contraction by histamine (Cavia porcellus, 0.1 h) (IC20).

In assay [2] (Cavia porcellus), `CCCC(F)(F)C(=O)CCC[C@@H]1[C@@H](C/C=C\CCCC(=O)OC)[C@@H](O)C[C@H]1O` [compound 7] came in with an IC20 of 4000 nM and an IC50 of 20000 nM. Besides, the 20% effect level in the assay with contraction by histamine (Cavia porcellus, 0.1 h) (IC20) was put at 17000 nM.

For `CCCC(F)(F)C(=O)CCC[C@H]1C(=O)C[C@H](O)[C@@H]1C/C=C\CCCC(=O)OC` [compound 8], in the assay on conjunctive, the “Weight of Conjunctive (Mean±S.D.)” value amounted to 38.5 ± 2.0 mg and the “Dye (µg/part)” value is reported as 7.69±0.71 µg/part.

As to `CCCC(F)(F)C(=O)CCC[C@H]1C=CC(=O)[C@@H]1C/C=C\CCCC(=O)OC` [compound 9], in the assay on conjunctive, the “Weight of Conjunctive (Mean±S.D.)” value was 38.9 ± 1.8 mg and the “Dye (µg/part)” value is given as 7.49±0.67 µg/part.

For orientation: IC20 means the concentration at which the effect reaches the 20% level. The IC50 is the midpoint of a concentration-inhibition curve.
